In patent US20210222168A1, “METHODS FOR REACTIVATING GENES ON THE INACTIVE X CHROMOSOME” (THE GENERAL HOSPITAL CORPORATION, priority 2017, published 2021):
Entries after “also recorded” stand apart in the source; their conditions may differ.

Columns and labels:
[1] = tested on: Mecp2:Luciferase knock-in reporter on the Xi; test: Luciferase assay in Xi-Mecp2-Luc MEFs; format: cell-based, mouse; details: for upregulation of MECP2 by other Xist gapmers: 20 nM ASO + 0.5 μM Aza (FIG. 7B-D); for Xi-Mecp2 upregulation / reactivation in combination with the Xist ASO: 20 nM Xist ASO + small molecule inhibitor (EPZ6438 1 uM, VX680 1 uM, Aza 0.5 uM)
Description: (§1) Mecp2-Luc fibroblast cell lines were a generous gift from Dr. Bedalov. The clonal hybrid (cast/mus) cell line (EY.T4) was previously developed in the lab (Yildirim E et al. (2011) X-chromosome hyperactivation in mammals via nonlinear relationships between chromatin states and transcription. Nat Struct Mol Biol 19:56-61). Passage number was kept below 25, no further verification of cell line identity was performed. They were maintained in DMEM-glutamax (Gibco), supplemented with fetal bovine serum (FBS, 10%), non-essential amino acids (1×, Gibco), HEPES buffer (25 mM, Gibco), penicillin/streptomycin (1×, Gibco) and 2-Mercaptoethanol (Sigma). Transfection was performed with 20 nM ASO assisted by Lipofectamine LTX with Plus reagent (Thermo Fisher).
Xa-Mecp2-Luc clone cell line was used in parallel for providing a scaling magnitude for normalizing Xi-driven luciferase signals, Cells were grown in a 12 well plate, trypsinized, counted, washed with PBS and dispensed in 20 ul of 1× cell culture lysis reagent (Promega). The mixture was vortexed and incubated for 5 min and then transferred to a zebra 96 well plate. The plate was read using a Perkin Elmer MicroBeta2 LumiJET that automatically adds 100 μl of Luciferase Assay Reagent (Promega) 2 sec before measuring the produced light for 10 sec. The corrected counts per second where divided by the number of cells for generating a luciferase-reactivation score per cell. For the initiating screen ASOs were used at 20 nM (transfected with lipofectamine) in combination with 0.5 uM Aza for 3 days. The reverse screen used 20 nM Xist ASO (transfected with lipofectamine) in combination with the small molecule inhibitors at different concentrations (see Table S-II) for 3 days.
We asked whether an ASO could also be developed for Xi-reactivation. We screened a small ASO library against various targets of potential interest, including Xist RNA and an antisense transcript to Mecp2 (Mecp2-as) (FIG. 1A, FIG. 6, Table S-I). In designing the ASOs, we chose phosporothioate backbone and locked nucleic acid (LNA™) chemistry (Wahlestedt C et al. Potent and nontoxic antisense oligonucleotides containing locked nucleic acids. Proc Natl Acad Sci USA. 2000; 97:5633-5638) for its in vivo and in vitro stability, and increased affinity and selectivity for RNA targets. All were designed as gapmers, with unmodified deoxyribonucleosides in the center flanked by 5′ and 3′ terminal locked nucleosides, to direct RNAse-H-mediated cleavage of the target transcript. […] The luciferase reporter provides a highly sensitive enzymatic detection method with a large dynamic range. […] Epigenetics Chromatin. […] Science. 2015; 349: aab2276-12), we examined the efficacy of each ASO in the presence of 0.5 uM decitabine (“Aza”; 5-aza-2′-deoxycytidine) for three days.

[2] = cited from earlier work
[3] = tested on: X-linked gene expression relative to autosomal expression; test: Aza three pulse treatment, transcriptomic analysis of brain and liver; format: in vivo, mouse
Text: All libraries were sequenced with Illumina HiSeq, generating 28-54 millions paired-end 50 nucleotide reads per sample. RNA-seq reads were aligned allele-specifically to 129S1/SvJm (mus) and CAST/Eih (cas) genome using TopHat2 (Kim D, et al. (2013) TopHat2: Accurate alignment of transcriptomes in the presence of insertions, deletions and gene fusions. Genome Biol 14:R36). After removal of PCR duplicates, all unique reads mapped to the exons of each gene were quantified by Homer (Heinz S, et al. (2010) Simple combinations of lineage-determining transcription factors prime cis-regulatory elements required for macrophage and B cell identities. Mol Cell 38:576-589). […] To compare the fold change of autosomal and X-linked genes, only genes with FPKM≥1 were considered (Yang L, Kirby J E, Sunwoo H, Lee J T (2016) Female mice lacking Xist RNA show partial dosage compensation and survive to term. Genes Dev 30:1747-1760). […] For allele-specific analysis, we defined % mus as the percentage of mus-specific exonic reads in all allele-specific (mus-specific+cas-specific) exonic reads of each transcript. For classification of X-linked genes, we defined expressed genes as genes having non-zero FPKM in all samples. Allele-assessable genes were defined as active genes that have more than 12 allele-specific reads in all samples (Pinter S F and Colognori D (2015) Allelic imbalance is a prevalent and tissue-specific feature of the mouse transcriptome. Genetics 200:537-549). It has been described that a small fraction of genes overlap with incorrectly annotated SNPs and produce unexpected allelic skewing (Pinter S F and Colognori D (2015) Allelic imbalance is a prevalent and tissue-specific feature of the mouse transcriptome. Genetics 200:537-549; Calabrese J M et al. (2012) Site-specific silencing of regulatory elements as a mechanism of X inactivation. Cell 151:951-963). These genes were identified by analyzing a published RNA-seq dataset of tail-tip fibroblasts (TTF) from pure Mus castaneous background. […]

[4] = Aza three pulse treatment, long-term health, lifespan and body weight
Description: Aza was administered to the Xist2lox, Nestin-Cre F2 generation, by IP injection at 5 weeks old. Three injections 100 ul per 10 g of 0.033 mg/ml in sterile saline (or just sterile saline as control) were given over the course of a week (each injection separated by 2 days). Both Xist2lox/2lox and Xist Δ/Δ were injected and were randomly assigned to the treatment group. No specific randomization protocol was followed. RNA from the brain and liver were harvested (as described before) at 7 weeks of age (2 weeks after the first injection).

Xi-Mecp2-Luc MEF cells [5] = details: stated in parentheses only; target and source not given; cited from earlier work
Xi-Mecp2-Luc MEF cells [6] = format: cell-based
Description: as §1
Imaging was done with a Nikon Eclipse TE2000-E equipped with a HamamatsuCCD camera. Image analysis was done with OpenLAB software (Agilent).

Xist ASO 2: LNA gapmer ASO targeting Xist exon 1; AGTAGCTCGGTGGAT, SEQ ID NO: 3 (all phosphorothioate, sugars by position and methylation of C not given here; LNA gapmer with DNA center and LNA wings)
upregulation of MECP2 by other Xist gapmers [1]: found to also upregulate MECP2

Scr ASO: negative control ASO, scrambled sequence; AACACGTCTATACGC, SEQ ID NO: 1 (all phosphorothioate, sugars by position and methylation of C not given here; LNA gapmer with DNA center and LNA wings)
luminescent counts per second (LCPS) / Mecp2:luciferase reactivation, single treatment ([1]; 3 days, ASO 20 nM or Aza 0.5 uM alone): neither the control Scr ASO (20 nM) nor Xist ASO (20 nM gapmer 1) resulted in measurable luminescent counts per second

Cc1cc(Nc2cc(N3CCN(C)CC3)nc(Sc3ccc(NC(=O)C4CC4)cc3)n2)n[nH]1 [VX680]
Xi-Mecp2 upregulation / reactivation in combination with the Xist ASO ([1]; 3 days): varying degrees of upregulation; also recorded: larger degree of reactivation than previously seen with any other compound

CCN(c1cc(-c2ccc(CN3CCOCC3)cc2)cc(C(=O)NCc2c(C)cc(C)[nH]c2=O)c1C)C1CCOCC1 [EPZ6438, N-((4,6-dimethyl-2-oxo-1,2-dihydropyridin-3-yl)methyl)-5-(ethyl(tetrahyd-ro-2H-pyran-4-yl)amino)-4-methyl-4′-(morpholinomethyl)-[1,1′-biphenyl]-3-carboxamide]
Xi-Mecp2 upregulation / reactivation in combination with the Xist ASO ([1]; 3 days): varying degrees of upregulation; also recorded: larger degree of reactivation than previously seen with any other compound

Xist ASO 3: LNA gapmer ASO targeting Xist exon 1; TGAGTCTTGAGGAGAA, SEQ ID NO: 4 (all phosphorothioate, sugars by position and methylation of C not given here; LNA gapmer with DNA center and LNA wings)
upregulation of MECP2 by other Xist gapmers [1]: found to also upregulate MECP2

Nc1ncn([C@H]2C[C@H](O)[C@@H](CO)O2)c(=O)n1 [Aza, 5-aza-2′-deoxycytidine]
blood-brain-barrier crossing ([2]; cited: Chabot et al., rabbits and dogs): can cross the blood-brain-barrier
half-life (t1/2) in plasma ([2]; plasma): < 1 h
Mecp2:luciferase upregulation, single treatments compared with the combination ([1]; 5 days): remained significantly lower
X- and autosomal gene expression in liver ([3]; three IP Aza pulses over one week at 5 weeks of age, harvested two weeks later, liver (Xist not deleted)): remained balanced
X-linked gene expression relative to autosomal expression in XistΔ/Δ brain ([3]; three IP Aza pulses over one week combined with Xist deletion, brain two weeks later): highly significant positive changes in X-linked gene expression relative to autosomal expression; also recorded: X-upregulation evident in the brain two weeks later; also recorded: sufficient to induce Xi reactivation after two weeks in the brain
X-to-autosomal gene expression in Xist2lox/2lox (wild-type) brain ([3]; three IP Aza pulses over one week, brain two weeks later): did not result in X-to-autosomal gene imbalance
survival ([4]; after short-term Aza pulse treatment): all mice advanced to 1-2 year of age
body weight, Aza versus saline treatment groups ([4]; mouse, in vivo): did not introduce significant differences
health and lifespan ([4]; mouse, in vivo): no measurable differences in health and lifespan
IC50 (Xi-Mecp2-Luc MEF cells [5]): 500 nM
cell death at higher Aza concentrations (Xi-Mecp2-Luc MEF cells [6]; 1.0, 2.5 uM Aza, 3-day treatment): increased cell death
tolerable Aza concentrations in cell culture (Xi-Mecp2-Luc MEF cells [6]; FIG. 2C): 0.5 µM
